Data published in patent US20070128217A1 (priority 2003, published 2007).

Columns and labels:
[1] = test system: rabbit serum obtained by immunizing a rabbit with the SARS-CoV strain Frankfurt 1; type: binding; design: Binding of a rabbit serum to linear peptides / Binding of a rabbit serum to looped peptides / Rabbit serum linear peptides / Rabbit serum looped peptides / Binding of a rabbit serum to linear peptides of protein N of SARS-CoV Urbani (Rabbit serum linear peptides) / Binding of a rabbit serum to looped/cyclic peptides of protein N of SARS-CoV Urbani (Rabbit serum looped peptides): unit not given here
[2] = test system: antibodies in sera from SARS patients (sera 1a, 1b, 2, 6, 37, 62, London, SARS-yellow, SARS-green); type: binding, human
[3] = test system: control sera (pooled serum of ten healthy LUMC hospital workers; commercial negative donor pooled serum from the Dutch bloodbank); type: binding, human

| Sequence | Binding of a rabbit serum to linear peptides [1] | Binding of a rabbit serum to looped peptides [1] | Binding of serum 1a to linear peptides of protein E of SARS-CoV Urbani [2] | Binding of serum 1a to looped/cyclic peptides of protein E of SARS-CoV Urbani [2] | Binding of serum 1b to linear peptides of protein E of SARS-CoV Urbani [2] | Binding of serum 1b to looped/cyclic peptides of protein E of SARS-CoV Urbani [2] | Binding of serum 2 to linear peptides of protein E of SARS-CoV Urbani [2] | Binding of serum 2 to looped/cyclic peptides of protein E of SARS-CoV Urbani [2] | Binding of serum 6 to linear peptides of protein E of SARS-CoV Urbani [2] | Binding of serum 6 to looped/cyclic peptides of protein E of SARS-CoV Urbani [2] | Binding of serum 37 to linear peptides of protein E of SARS-CoV Urbani [2] | Binding of serum 37 to looped/cyclic peptides of protein E of SARS-CoV Urbani [2] | Binding of serum 62 to linear peptides of protein E of SARS-CoV Urbani [2] | Binding of serum 62 to looped/cyclic peptides of protein E of SARS-CoV Urbani [2] | Binding of serum London to linear peptides of protein E of SARS-CoV Urbani [2] | Binding of serum London to looped/cyclic peptides of protein E of SARS-CoV Urbani [2] | Binding of serum SARS-green to linear peptides of protein E of SARS-CoV Urbani [2] | Binding of serum SARS-green to looped/cyclic peptides of protein E of SARS-CoV Urbani [2] | Binding of serum SARS-yellow to linear peptides of protein E of SARS-CoV Urbani [2] | Binding of serum SARS-yellow to looped/cyclic peptides of protein E of SARS-CoV Urbani [2] | further results |
| --- | --- | --- | --- | --- | --- | --- | --- | --- | --- | --- | --- | --- | --- | --- | --- | --- | --- | --- | --- | --- | --- |
| LFLAFVVFLLVTLAI | 0.5 | 0.3 | 0.9 | 0.5 | 0.5 | 0.5 | 0.9 | 0.6 | 0.7 | 0.5 | 0.7 | 0.6 | 0.7 | 0.7 | 0.8 | 0.5 | 0.5 | 0.7 | 0.2 | 0.9 | Binding of Control Serum Blood-Bank to Looped peptides [3]: 0.6; Binding of Control serum Blood-bank to linear peptides [3]: 0.7; Binding of Control serum LUMC to linear peptides [3]: 0.5; Binding of Control serum LUMC to looped peptides [3]: 0.7 |
| LLVTLAILTALRLCA | 0.5 | 0.8 | 0.8 | 0.7 | 0.4 | 0.1 | 0.5 | 0.6 | 0.4 | 0.4 | 0.6 | 0.3 | 0.6 | 0.8 | 0.5 | 0.4 | 0.4 | 0.6 | 0.0 | 0.3 | Binding of Control Serum Blood-Bank to Looped peptides [3]: 0.8; Binding of Control serum Blood-bank to linear peptides [3]: 0.7; Binding of Control serum LUMC to linear peptides [3]: 0.3; Binding of Control serum LUMC to looped peptides [3]: 0.8 |
| LRLCAYCCNIVNVSL | 0.6 | 0.2 | 0.7 | 0.7 | 0.6 | 0.4 | 0.4 | 0.5 | 0.6 | 0.4 | 0.7 | 0.6 | 0.7 | 0.6 | 0.5 | 0.4 | 0.3 | 0.6 | 0.3 | 0.6 | Binding of Control Serum Blood-Bank to Looped peptides [3]: 0.6; Binding of Control serum Blood-bank to linear peptides [3]: 0.8; Binding of Control serum LUMC to linear peptides [3]: 0.4; Binding of Control serum LUMC to looped peptides [3]: 0.6 |
| LTALRLCAYCCNIVN | 0.6 | 0.4 | 0.9 | 0.6 | 0.8 | 0.4 | 0.4 | 0.7 | 0.7 | 0.5 | 0.8 | 0.7 | 0.7 | 0.7 | 0.5 | 0.3 | 0.3 | 0.3 | 0.2 | 0.4 | Binding of Control Serum Blood-Bank to Looped peptides [3]: 0.7; Binding of Control serum Blood-bank to linear peptides [3]: 0.7; Binding of Control serum LUMC to linear peptides [3]: 0.5; Binding of Control serum LUMC to looped peptides [3]: 0.6 |
| LVTLAILTALRLCAY | 0.4 | 0.3 | 0.8 | 0.6 | 0.5 | 0.5 | 0.6 | 1.0 | 0.7 | 0.4 | 0.7 | 0.7 | 0.7 | 0.6 | 0.5 | 0.4 | 0.3 | 0.6 | 0.1 | 0.4 | Binding of Control Serum Blood-Bank to Looped peptides [3]: 0.6; Binding of Control serum Blood-bank to linear peptides [3]: 0.6; Binding of Control serum LUMC to linear peptides [3]: 0.3; Binding of Control serum LUMC to looped peptides [3]: 0.8 |
